Data on two compounds can be found in patent publication US7026347B2, “Porphyrin-polyamine conjugates for cancer therapy” (CellGate, Inc., priority 2002, dated 2006).

Holding throughout (assay type): cell-based
For test [1], the system named is DuPro human prostate tumor cells. Description: MTT assay, human prostate tumor cell growth, DuPro. To be noted: 144 h, MTT six days after drug treatment, read-out: ID50 (μM) values for Human prostate tumor Cell Lines DuPro. On the procedure:
(§1) A conventional MTT assay was used to evaluate percent cell survival. Exponentially growing monolayer cells were plated in 96-well plates at a density of 500 cells per well and allowed to grow for 24 hours. Serial dilutions of the drugs were added to the wells. Six days after drug treatment, 25 μl of MTT solution (5 mg/ml) was added to each well and incubated for 4 hours at 37° C. Then 100 μl of lysis buffer (20% sodium dodecyl sulfate, 50% DMF, and 0.8% acetic acid, pH 4.7) was added to each well and incubated for an additional 22 hours. A microplate reader (“EMAX”-brand, Molecular Devices, Sunnyvale, Calif.) set at 570 nm was used to determine the optical density of the cultures. Results are expressed as a ratio of the optical density in drug-treated wells to the optical density in wells treated with vehicle only. FIGS. 1–13 also indicate the effects of the compounds on various cell lines.
On the technique in general: Formazan colour is commonly taken as a measure of viable cells.

The subject of test [2] is PC-3 human prostate tumor cells. Description: MTT assay, human prostate tumor cell growth, PC-3. The conditions noted are these: 144 h, PC-3 cells, MTT six days after drug treatment, read-out: ID50 (μM) values for Human prostate tumor Cell Lines PC-3. On the procedure: as §1
Test [3] deals with BxPC-3 human pancreatic cancer cells. Description: MTT assay, human pancreatic cancer cell growth, BxPC-3. To be noted: 144 h, BxPC-3 cells, MTT six days after drug treatment, read-out: ID50(μM) values for Human Pancreatic Cancer Cell Lines BxPC-3. The method, then: as §1
Test [4] concerns Panc-1 human pancreatic cancer cells. Briefly: MTT assay, human pancreatic cancer cell growth, Panc-1. To be noted: 144 h, Panc-1 cells, MTT six days after drug treatment, read-out: ID50(μM) values for Human Pancreatic Cancer Cell Lines Panc-1. On the procedure:
as §1

Test [5] has as its system Human Brain Tumor Cells U251MG NCI. Briefly: MTT assay, human brain tumor cell growth, U251MG NCI. The conditions noted are these: U-251, 144 h, MTT six days after drug treatment, read-out: ID50(μM) values for Human Brain Tumor Cells U251MG NCI. On the procedure: as §1
In test [6] the test system is Tsu-pr1 human prostate tumor cells. Briefly: MTT assay, human prostate tumor cell growth, Tsu-pr1. To be noted: 144 h, MTT six days after drug treatment, read-out: ID50 (μM) values for Human prostate tumor Cell Lines Tsu-pr1. On the procedure:
as §1

Test [7] relates to Tsu-pr1-ADR human prostate tumor cells. Description: MTT assay, human prostate tumor cell growth, Tsu-pr1-ADR. The conditions noted are these: 144 h, MTT six days after drug treatment, read-out: ID50 (μM) values for Human prostate tumor Cell Lines Tsu-pr1-ADR. The method, then: as §1

SMILES strings stand for the structures.

On to `CCNCCCCNCC1CC1CNCCCCN(CC)C(=O)CCC1=C(C)c2cc3[nH]c(cc4nc(cc5[nH]c(cc1n2)c(CCC(=O)N(CC)CCCCNCC1CC1CNCCCCNCC)c5C)C(CC)=C4C)c(CC)c3C` (stereo not drawn) [SL-11217], for which the IC50 in test [1] amounted to 3.6 µM; in test [2], 2.8 µM; in test [3], 6.87 µM; in test [4], 6.38 µM; in test [5] it was 5.65 µM.

For `CCCCCCCCCCCCCC1CCN(CCCNC(=O)CCC2=C(C)c3cc4[nH]c(cc5nc(cc6[nH]c(cc2n3)c(CCC(=O)NCCCN2CCCN(C)CCCCN(C)CCCN(C)C(CCCCCCCCCCCCC)CC2)c6C)C(CC)=C5C)c(CC)c4C)CCCN(C)CCCCN(C)CCCN1C` (stereo not drawn) [SL-11237], the IC50 was 1.9 µM in test [1]; 1.7 µM in test [2]; 1.87 µM in test [6]; 12.6 µM in test [7]; 5.92 µM in test [3]; 12.5 µM in test [4]. Also, the IC50 in test [5] was determined as 2.3 µM.
